Earlier results on 1 substance are cited in patent US11464768B2, “Pimavanserin alone or in combination for use in the treatment of Alzheimer's disease psychosis” (ACADIA Pharmaceuticals Inc., priority 2016, dated 2022).

The conditions of this series: tartrate salt; cited from earlier work.

Regarding “urea, N-[(4-fluorophenyl)methyl]-N-(1-methyl-4-piperidinyl)-N′-[[4-(2-methylpropoxy)phenyl]methyl]-,(2R,3R)-2,3-dihydroxybutanedioate (2:1) [Pimavanserin tartrate]”, the solubility in water result is “freely soluble in water”.
